Source: patent US7964645B2, “Di-aromatic substituted amides as inhibitors for GlyT-1” (Hoffmann-La Roche Inc., priority 2006, dated 2011)

Target: T1, mGlyT-1b (Mus musculus, UniProt P28571)
T1 construct: host or cells: Flp-in-CHO
T1 sequence (P28571 1-651 isoform P28571-2): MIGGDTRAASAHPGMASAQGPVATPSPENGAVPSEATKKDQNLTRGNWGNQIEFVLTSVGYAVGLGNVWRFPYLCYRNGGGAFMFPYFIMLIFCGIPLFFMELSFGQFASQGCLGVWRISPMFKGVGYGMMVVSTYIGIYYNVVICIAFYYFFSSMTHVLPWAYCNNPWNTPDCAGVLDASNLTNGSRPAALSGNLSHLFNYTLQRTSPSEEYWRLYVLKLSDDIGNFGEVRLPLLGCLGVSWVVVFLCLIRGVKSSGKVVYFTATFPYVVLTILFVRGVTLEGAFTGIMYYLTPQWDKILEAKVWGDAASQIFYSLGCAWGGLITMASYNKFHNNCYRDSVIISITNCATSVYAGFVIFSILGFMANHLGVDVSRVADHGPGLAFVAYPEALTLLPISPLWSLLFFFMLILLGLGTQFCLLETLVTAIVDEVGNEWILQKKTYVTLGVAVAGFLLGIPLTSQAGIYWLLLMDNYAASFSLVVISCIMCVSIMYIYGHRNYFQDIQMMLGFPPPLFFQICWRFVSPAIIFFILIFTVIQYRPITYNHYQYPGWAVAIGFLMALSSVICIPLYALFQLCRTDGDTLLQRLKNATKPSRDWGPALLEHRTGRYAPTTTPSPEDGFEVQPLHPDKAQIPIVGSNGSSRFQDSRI
Assay: Glycine Uptake Inhibition Assay (mGlyT-1b)
Type: cell-based
Details: [3H]-glycine uptake in Flp-in-CHO cells transfected with mGlyT-1b cDNA; 20 min at 22° C.; read-out: GlyT-1 IC50
Description: DMEM complete medium: Nutrient mixture F-12 (Gibco Life-technologies), fetal bovine serum (FBS) 5%, (Gibco life technologies), Penicillin/Streptomycin 1% (Gibco life technologies), Hygromycin 0.6 mg/ml (Gibco life technologies), Glutamine 1 mM Gibco life technologies)
Uptake buffer (UB): 150 mM NaCl, 10 mM Hepes-Tris, pH 7.4, 1 mM CaCl2, 2.5 mM KCl, 2.5 mM MgSO4, 10 mM (+) D-glucose.
Flp-in™-CHO (Invitrogen Cat n^o R758-07) cells stably transfected with mGlyT1b cDNA.
Glycine Uptake Inhibition Assay (mGlyT-1b)
On day 1 mammalian cells, (Flp-in™-CHO), transfected with mGlyT-1b cDNA, were plated at the density of 40,000 cells/well in complete F-12 medium, without hygromycin in 96-well culture plates. On day 2, the medium was aspirated and the cells were washed twice with uptake buffer (UB). The cells were then incubated for 20 min at 22° C. with either (i) no potential competitor, (ii) 10 mM non-radioactive glycine, (iii) a concentration of a potential inhibitor. A range of concentrations of the potential inhibitor was used to generate data for calculating the concentration of inhibitor resulting in 50% of the effect (e.g. IC50, the concentration of the competitor inhibiting glycine uptake of 50%). A solution was then immediately added containing [^3H]-glycine 60 nM (11-16 Ci/mmol) and 25 μM non-radioactive glycine. The plates were incubated with gentle shaking and the reaction was stopped by aspiration of the mixture and washing (three times) with ice-cold UB. The cells were lysed with scintillation liquid, shaken 3 hours and the radioactivity in the cells was counted using a scintillation counter.

Compound	IC50 [nM]
O=C(CNC(=O)c1ccccc1)NC(c1ccccc1)c1cccc(C(F)(F)F)c1 (racemic) [Example 1.30, rac-N-({[Phenyl-(3-trifluoromethyl-phenyl)-methyl]-carbamoyl}-methyl)-benzamide]	54
O=C(CNC(=O)c1ccc(F)cc1)NC(c1ccccc1)c1ccc(F)cc1 (racemic) [Example 1.69, rac-4-Fluoro-N-({[(4-fluoro-phenyl)-phenyl-methyl]-carbamoyl}-methyl)-benzamide]	88
O=C(CNC(=O)c1ccc(F)cc1)NC(c1ccc(Cl)cc1)c1cccc(C(F)(F)F)c1 (racemic) [Example 1.76, rac-N-({[(4-Chloro-phenyl)-(3-trifluoromethyl-phenyl)-methyl]-carbamoyl}-methyl)-4-fluoro-benzamide]	74
O=C(CNC(=O)c1ccc(F)cc1)NC(c1ccc(F)cc1)c1cccc(C(F)(F)F)c1 (racemic) [Example 1.77, rac-4-Fluoro-N-({[(4-fluoro-phenyl)-(3-trifluoromethyl-phenyl)-methyl]-carbamoyl}-methyl)-benzamide]	48
Cc1ccc(C(NC(=O)CNC(=O)c2ccc(F)cc2)c2cccc(C(F)(F)F)c2)cc1 (racemic) [Example 1.78, rac-4-Fluoro-N-({[p-tolyl-(3-trifluoromethyl-phenyl)-methyl]-carbamoyl}-methyl)-benzamide]	58

The next molecules have a lower IC50 than those just listed; values first:

IC50 [nM]	Compound
15	O=C(CNC(=O)c1ccc([N+](=O)[O-])s1)NC(c1ccccc1)c1ccc(Cl)cc1 (racemic) [Example 1.32, rac-5-Nitro-thiophene-2-carboxylic acid ({[(4-chloro-phenyl)-phenyl-methyl]-carbamoyl}-methyl)-amide]
19	N#Cc1ccc(C(=O)NCC(=O)NC(c2ccccc2)c2cccc(C(F)(F)F)c2)cc1 (racemic) [Example 1.44, rac-4-Cyano-N-({[phenyl-(3-trifluoromethyl-phenyl)-methyl]-carbamoyl}-methyl)-benzamide]
25	O=C(CNC(=O)c1ccc(F)cc1)NC(c1ccccc1)c1cc(F)cc(F)c1 (racemic) [Example 1.72, rac-N-({[(3,5-Difluoro-phenyl)-phenyl-methyl]-carbamoyl}-methyl)-4-fluoro-benzamide]
42	Cc1ccc(C(=O)NCC(=O)NC(c2cccc(F)c2)c2cccc(F)c2)s1 [Example 1.86, 5-Methyl-thiophene-2-carboxylic acid ({[bis-(3-fluoro-phenyl)-methyl]-carbamoyl}-methyl)-amide]
28	O=C(CNC(=O)c1ccsc1)NC(c1cccc(F)c1)c1cccc(F)c1 [Example 1.98, Thiophene-3-carboxylic acid ({[bis-(3-fluoro-phenyl)-methyl]-carbamoyl}-methyl)-amide]
